Reference: patent US8323909B2, “Methods of identifying small molecules for renewals, survival and migration of cardiac progenitors” (The Regents of the University of California, priority 2006, dated 2012)

Test system: isl1+ cardiac progenitor cells
Assay: Chemical compound screen with β-gal tagged isl1+ cardiac progenitors (luciferase/β-gal activity, β-gal+ cell count, isl1 immunohistochemistry)
Type: cell-based, mouse
From the text: The inventors developed an assay based on the β-gal tagged cardiac progenitors to identify small molecules and defined factors that can trigger the renewal of the cardiac progenitors (FIGS. 4A and 4B). The isl1-mER-Cre-mER knock-in mice were utilized to conditionally mark embryonic and post-natal isl1+ cardiac progenitors. Mice which are double heterozygous for the isl1-mER-Cre-mER and the R26R-indicator allele allow the purification of a relatively homogeneous population of isl1+ cardiac progenitors after amplification on mesenchymal feeder layers.
The β-gal substrate 6-O-β-galactopyranosyl-luciferin allows luciferase-mediated detection of light emission in genetically lacZ labelled cells in a high throughput manner (FIGS. 4A and 4B). 6-O-galactopyranosyl-luciferin is cleaved by (3-gal into D-Luciferin, which is processed by luciferase in an ATP-dependent step into Oxyluciferin and light.
After screening a small molecule library containing over 15,000 compounds, a series of compounds that can trigger the expression of lacZ activity as well as the induction of the isl1 protein in cultured cardiac progenitor preparations was identified.
The screen was based on three independent read-out systems. First, the chemical compound library was screened for luciferase activity, and thereby indirectly for β-gal activity of proliferating cells. Second, β-gar progenitor cells were counted within the mesenchymal feeder layers with and without compound treatment, and third, expression of the transcription factor isl1^+ per progenitor cell was screened in an immunohistochemically based analysis.

O=C1Nc2cc(Br)ccc2/C1=C1/Nc2ccccc2/C1=N\O [BIO, 6-bromoindirubin-3′-oxime]
effect on the proliferation capacity of isl1+ cardiac progenitor cells: 50-80 fold | β-galactosidase activity (cardiac progenitor cells from isl1-mER-Cre-mER/R26R mice, after 4 days in culture, luciferase assay): significant increase | β-gal+ progenitor cell number (cells counted within mesenchymal feeder layers with and without compound treatment): significant increase | proliferation of isl1+ precursor cells (result in words (FIG. 5 legend)): significant increase
